We go through 32 compounds from patent US20240109868A1, “EP300/CBP MODULATOR, PREPARATION METHOD THEREFOR AND USE THEREOF” (Miracure Biotechnology Limited, priority 2022, published 2024).

The test system of one experiment is 22Rv1 Cell. The experiment can be described thus: 22RV1 cell growth inhibition, CellTiter-Glo, 72 h. The following applies: 22RV1 cells, 72 h culture. The format is cell-based. The essentials: (§1)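 Cells seeded at 5×10^3/well overnight in RPMI-1640/10% FBS, then exposed to compound (0.5% DMSO final) for 72 h at 37 °C.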
In general terms: Cellular ATP, detected with luciferase, serves as a proxy for viable cell number.

For another experiment, the system named is vCap Cell. As to the kind of experiment: vCap cell growth inhibition, CellTiter-Glo, 72 h. The format is cell-based. The following applies: vCap cells, 72 h culture. The essentials:
as §1

By IC50 is commonly meant the concentration that gives 50% inhibition. The low end stands for higher potency, the high end for lower potency.

With `COC1CCC(c2cc3c(c(N4CCCc5cc(-c6cnn(C)c6)c(C(F)F)cc54)c2)CN(C(C)=O)CC3)CC1` (stereo not shown) [Compound M001196], the IC50 was over 1000 nM in the experiment on 22Rv1 Cell (Homo sapiens, 22Rv1, 72 h) and over 1000 nM in the experiment with vCap Cell (Homo sapiens, VCaP, 72 h).

As for `COC1CCC(c2cc3c(c(N4CCCc5cc(-c6cnn(C)c6)c(C(F)F)cc54)c2)CN(C(C)=O)CC3)CC1` (stereo not shown) [Compound M001197], the IC50 in the experiment on 22Rv1 Cell and with vCap Cell was over 1000 nM each time.

Take `CNC(=O)N1CCc2cc(C3CCC(OC)CC3)cc(N3CCCc4cc(-c5cnn(C)c5)c(C(F)F)cc43)c2C1` (stereo not shown) [Compound M001198]: the IC50 was over 1000 nM in the experiment with 22Rv1 Cell (Homo sapiens, 22Rv1, 72 h) and over 1000 nM in the experiment on vCap Cell (Homo sapiens, VCaP, 72 h).

In the case of `CNC(=O)N1CCc2cc(C3CCC(OC)CC3)cc(N3CCCc4cc(-c5cnn(C)c5)c(C(F)F)cc43)c2C1` (stereo not shown) [Compound M001199], the half-maximal inhibitory concentration (IC50) with 22Rv1 Cell and with vCap Cell was over 1000 nM each time.

For the compound `CNC(=O)N1Cc2cc(C3CCC(OC)CC3)cc(N3CCCc4cc(-c5cnn(C)c5)c(C(F)F)cc43)c2C1` (stereo not shown) [Compound M001200], the IC50 with 22Rv1 Cell (Homo sapiens, 22Rv1, 72 h) was over 1000 nM; in the experiment on vCap Cell (Homo sapiens, VCaP, 72 h), over 1000 nM.

Turning to `COC(=O)N1CCc2cc(Cl)cc(N3CCCc4cc(-c5cnn(C)c5)c(C(F)F)cc43)c2C1` [Compound M001201], the IC50 in the experiment on 22Rv1 Cell (Homo sapiens, 22Rv1, 72 h) is over 1000 nM; with vCap Cell (Homo sapiens, VCaP, 72 h), over 1000 nM.

On to `COC(=O)N1Cc2cc(C3CCC(OC)CC3)cc(N3CCCc4cc(-c5cnn(C)c5)c(C(F)F)cc43)c2C1` (stereo not shown) [Compound M001203], for which the IC50 in the experiment with 22Rv1 Cell (Homo sapiens, 22Rv1, 72 h) was over 1000 nM; in the experiment with vCap Cell (Homo sapiens, VCaP, 72 h) it was over 1000 nM.

As for `COC(=O)N1Cc2cc(C3CCC(OC)CC3)cc(N3CCCc4cc(-c5cnn(C)c5)c(C(F)F)cc43)c2C1` (stereo not shown) [Compound M001204], the IC50 with 22Rv1 Cell and with vCap Cell was over 1000 nM in each case.

Consider `CC(=O)N1CCc2cccc(N3CCCc4cc(-c5cnn(C)c5)c(C(F)F)cc43)c2C1` [Compound M001207], for which the IC50 is over 1000 nM with 22Rv1 Cell (Homo sapiens, 22Rv1, 72 h) and over 1000 nM in the experiment with vCap Cell (Homo sapiens, VCaP, 72 h).

Turning to `CC(=O)N1CCc2cc(Cl)cc(N3CCCc4cc(-c5cnn(C)c5)c(C(F)F)cc43)c2C1` [Compound M001208], the IC50 with 22Rv1 Cell (Homo sapiens, 22Rv1, 72 h) is over 1000 nM; in the experiment with vCap Cell (Homo sapiens, VCaP, 72 h) it was over 1000 nM.

Take `CNC(=O)N1CCc2cc(Cl)cc(N3CCCc4cc(-c5cnn(C)c5)c(C(F)F)cc43)c2C1` [Compound M001209]: the half-inhibitory concentration (IC50) in the experiment with 22Rv1 Cell (Homo sapiens, 22Rv1, 72 h) was over 1000 nM; in the experiment on vCap Cell (Homo sapiens, VCaP, 72 h) it was over 1000 nM.

For `COC(=O)N1CCCc2cccc(N3CCCc4cc(-c5cnn(C)c5)c(C(F)F)cc43)c2C1` [Compound M001210], the IC50 was over 1000 nM with 22Rv1 Cell (Homo sapiens, 22Rv1, 72 h) and over 1000 nM in the experiment with vCap Cell (Homo sapiens, VCaP, 72 h).

On to `CNC(=O)N1CCCc2cccc(N3CCCc4cc(-c5cnn(C)c5)c(C(F)F)cc43)c2C1` [Compound M001211], for which the IC50 in the experiment with 22Rv1 Cell (Homo sapiens, 22Rv1, 72 h) is over 1000 nM; in the experiment on vCap Cell (Homo sapiens, VCaP, 72 h) it was over 1000 nM.

Consider `CC(=O)N1CCCc2cccc(N3CCCc4cc(-c5cnn(C)c5)c(C(F)F)cc43)c2C1` [Compound M001212], for which the IC50 was over 1000 nM with 22Rv1 Cell (Homo sapiens, 22Rv1, 72 h) and over 1000 nM with vCap Cell (Homo sapiens, VCaP, 72 h).

In the case of `Cn1cc(-c2cc3c(cc2C(F)F)N(c2cccc4c2CN(C(N)=O)CCC4)CCC3)cn1` [Compound M001213], the IC50 with 22Rv1 Cell (Homo sapiens, 22Rv1, 72 h) was over 1000 nM; with vCap Cell (Homo sapiens, VCaP, 72 h), over 1000 nM.

Turning to `Cn1cc(-c2cc3c(cc2C(F)F)N(c2cccc4c2CN(C(=O)C2CC2)CCC4)CCC3)cn1` [Compound M001214], the IC50 with 22Rv1 Cell (Homo sapiens, 22Rv1, 72 h) is over 1000 nM; with vCap Cell (Homo sapiens, VCaP, 72 h), over 1000 nM.

As to `Cn1cc(-c2cc3c(cc2C(F)F)N(c2cccc4c2CNC(=O)CC4)CCC3)cn1` [Compound M001215, 9-[7-(difluoromethyl)-6-(1-methylpyrazol-4-yl)-3,4-dihydro-2H-quinolin-1-yl]-1,2,4,5-tetrahydro-2-benzazepin-3-one], the IC50 is over 1000 nM with 22Rv1 Cell (Homo sapiens, 22Rv1, 72 h) and over 1000 nM with vCap Cell (Homo sapiens, VCaP, 72 h).

`CC(=O)N1Cc2cc(C3CCNC(=O)C3)cc(N3CCCc4cc(-c5cnn(C)c5)ccc43)c2C1` (stereo not shown) [Compound M001218]: the IC50 in the experiment with 22Rv1 Cell (Homo sapiens, 22Rv1, 72 h) was over 1000 nM; in the experiment with vCap Cell (Homo sapiens, VCaP, 72 h), over 1000 nM.

For `CC(=O)N1Cc2cc(C3CCNC(=O)C3)cc(N3CCCc4cc(-c5cnn(C)c5)c(C5CC5)cc43)c2C1` (stereo not shown) [Compound M001219, 4-{2-acetyl-7-[7-cyclopropyl-6-(1-methylpyrazol-4-yl)-3,4-dihydro-2H-quinolin-1-yl]-1,3-dihydroisoindol-5-yl}piperidin-2-one], the IC50 in the experiment on 22Rv1 Cell (Homo sapiens, 22Rv1, 72 h) was under 1000 nM; in the experiment with vCap Cell (Homo sapiens, VCaP, 72 h), under 1000 nM.

Turning to `CCN1CC(c2cc3c(c(N4CCCc5cc(-c6cnn(C)c6)c(C(F)F)cc54)c2)CN(C(=O)NC)CC3)CCC1=O` (stereo not shown) [Compound M001221], the IC50 in the experiment on 22Rv1 Cell (Homo sapiens, 22Rv1, 72 h) is under 1000 nM; in the experiment on vCap Cell (Homo sapiens, VCaP, 72 h), under 1000 nM.

In the case of `CNC(=O)N1CCc2cc(C3CCC(=O)N(CCOC)C3)cc(N3CCCc4cc(-c5cnn(C)c5)c(C(F)F)cc43)c2C1` (stereo not shown) [Compound M001222], the IC50 is under 1000 nM in the experiment on 22Rv1 Cell (Homo sapiens, 22Rv1, 72 h) and under 1000 nM in the experiment with vCap Cell (Homo sapiens, VCaP, 72 h).

With `CCN1CC(c2cc3c(c(N4CCCc5cc(-c6cnn(C)c6)c(C(F)F)cc54)c2)CN(C(C)=O)C3)CCC1=O` (stereo not shown) [Compound M001224], the IC50 with 22Rv1 Cell (Homo sapiens, 22Rv1, 72 h) is under 1000 nM; with vCap Cell (Homo sapiens, VCaP, 72 h), under 1000 nM.

For `COCCN1CC(c2cc3c(c(N4CCCc5cc(-c6cnn(C)c6)c(C(F)F)cc54)c2)CN(C(C)=O)C3)CCC1=O` (stereo not shown) [Compound M001225], the IC50 in the experiment on 22Rv1 Cell (Homo sapiens, 22Rv1, 72 h) is over 1000 nM; in the experiment with vCap Cell (Homo sapiens, VCaP, 72 h) it was under 1000 nM.

Regarding `CCOC(=O)N1CCc2cc(Cl)cc(N3CCCc4cc(-c5cnn(C)c5)c(C(F)F)cc43)c2C1` [Compound M001228], the IC50 was over 1000 nM with 22Rv1 Cell (Homo sapiens, 22Rv1, 72 h) and over 1000 nM in the experiment with vCap Cell (Homo sapiens, VCaP, 72 h).

For the compound `CCNC(=O)N1CCc2cc(Cl)cc(N3CCCc4cc(-c5cnn(C)c5)c(C(F)F)cc43)c2C1` [Compound M001229], the IC50 was over 1000 nM in the experiment on 22Rv1 Cell (Homo sapiens, 22Rv1, 72 h) and over 1000 nM in the experiment with vCap Cell (Homo sapiens, VCaP, 72 h).

In the case of `CNC(=O)N1CCc2cc(C3CCC(=O)N(CC(C)(C)O)C3)cc(N3CCCc4cc(-c5cnn(C)c5)c(C(F)F)cc43)c2C1` (stereo not shown) [Compound M001230], the IC50 in the experiment with 22Rv1 Cell (Homo sapiens, 22Rv1, 72 h) was under 1000 nM; in the experiment with vCap Cell (Homo sapiens, VCaP, 72 h) it was under 1000 nM.

In the case of `CC(=O)N1Cc2cc(C3CCC(=O)N(CC(C)(C)O)C3)cc(N3CCCc4cc(-c5cnn(C)c5)c(C(F)F)cc43)c2C1` (stereo not shown) [Compound M001231], the IC50 in the experiment with 22Rv1 Cell (Homo sapiens, 22Rv1, 72 h) is under 1000 nM; with vCap Cell (Homo sapiens, VCaP, 72 h) it was under 1000 nM.

With `CNC(=O)N1CCc2cc([C@H]3CCC(=O)N(C)C3)cc(N3CCCc4cc(-c5cnn(C)c5)c(C(F)F)cc43)c2C1` [Compound M001234], the half-maximal inhibitory concentration (IC50) with 22Rv1 Cell (Homo sapiens, 22Rv1, 72 h) is under 1000 nM; in the experiment with vCap Cell (Homo sapiens, VCaP, 72 h), under 1000 nM.

For the compound `CNC(=O)N1CCc2cc([C@@H]3CCC(=O)N(C)C3)cc(N3CCCc4cc(-c5cnn(C)c5)c(C(F)F)cc43)c2C1` [Compound M001235], the IC50 with 22Rv1 Cell (Homo sapiens, 22Rv1, 72 h) is under 1000 nM; in the experiment on vCap Cell (Homo sapiens, VCaP, 72 h), under 1000 nM.

Take `Cn1cc(-c2cc3c(cc2C(F)F)N(c2cccc4c2NC(=O)CCC4)CCC3)cn1` [Compound M001236, 9-[7-(difluoromethyl)-6-(1-methylpyrazol-4-yl)-3,4-dihydro-2H-quinolin-1-yl]-1,3,4,5-tetrahydro-1-benzazepin-2-one]: the IC50 is over 1000 nM in the experiment with 22Rv1 Cell (Homo sapiens, 22Rv1, 72 h) and over 1000 nM in the experiment on vCap Cell (Homo sapiens, VCaP, 72 h).

Turning to `CNC(=O)N1CCc2cc(-c3ccc(=O)n(C)c3)cc(Nc3cc(C(F)F)c(-c4cnn(C)c4)cc3F)c2C1` [Compound M001239, 8-((5-(difluoromethyl)-2-fluoro-4-(1-methyl-1H-pyrazol-4-yl)phenyl)amino)-N-methyl-6-(1-methyl-6-oxo-1,6-dihydropyridin-3-yl)-3,4-dihydroisoquinoline-2(1H)-carboxamide], the IC50 with 22Rv1 Cell (Homo sapiens, 22Rv1, 72 h) was under 1000 nM; with vCap Cell (Homo sapiens, VCaP, 72 h) it was under 1000 nM.

For the compound `CNC(=O)N1Cc2nc(C3CCOCC3)nc(N3CCCc4cc(-c5cnn(C)c5)c(C(F)F)cc43)c2C1` [Compound M001244], the IC50 is over 1000 nM in the experiment with 22Rv1 Cell (Homo sapiens, 22Rv1, 72 h) and over 1000 nM in the experiment with vCap Cell (Homo sapiens, VCaP, 72 h).
